The structures appear in SMILES notation.

In experiment [1] the test system is ESKOL cells. The experiment in a line: Antiproliferative effect on ESKOL cells (viable cell count, Coulter counter). Type of experiment: cell-based, human. To be noted: 1 and 10 μg/ml; 1, 2 or 4 days; FIGS. 1A and 1B. On the procedure:
FIG. 1: The antiproliferative effects of M1, M2, M4, M5 and M6 were compared as indicated in the Examples Section on ESKOL cells. ESKOL cells were seeded at 2×10^5 cells/ml in the wells of micro-titration plate in the presence or absence (medium alone: ◯, DMSO: […]) of M1 (□), M2 (▪), M4 (▴), M5 ([…]), M6 (◯) at the concentrations of 1 μg/ml (A) and 10 μg/ml (B). After various times of incubation (1, 2 or 4 days), aliquots were harvested and the concentration of viable cells was measured in a Coulter counter as indicated in the examples.
The anti-proliferative effects of the isolated molecules were investigated on the ESKOL cell line derived from a hairy cell leukemia patient, a chronic B cell malignancy (Harvey et al, Leuk Res. 1991; 15: 733-744).
Cells were routinely cultured at seeding densities of 2×10^6 cells/ml in RPMI-1640 medium supplemented with 2 mM glutamine, 1 mM sodium pyruvate, 100 IU/ml penicillin, 100 μg/ml streptomycin and 10% FCS (PAA Laboratories, Pasching, Austria) and cultures were performed at 37° C. in an humidified atmosphere containing 5% CO2.
For the assay, ESKOL cells were seeded at 2×10^5/ml in 24-well microtitration plate, together with two concentrations (1 and 10 μg/ml) of the […] xanthones or 1% DMSO (solvent) as control. After 1, 2 and 4 days of culture, aliquots of cells were collected and the cell concentration was evaluated by counting the number of viable cells with a Coulter Multisizer counter Z2 (Coultronics, Margency, France) allowing the discrimination between viable and dead cells and debris according to size distribution.
Cells were cultured in duplicates or triplicates and each experiment repeated 2 to 5 times.

Experiment [2] deals with Plasmodium. The conditions noted are these: literature; cited from earlier work.

For `COc1c(O)cc2oc3cc(O)c(CC=C(C)C)c(O)c3c(=O)c2c1CC=C(C)C` [M2, α-mangostin], the “proliferation of ESKOL cells” value in experiment [1] is “markedly and dose-dependently slowed down the proliferation”. In addition, the antiplasmodial activity entry in experiment [2] was “displays antiplasmodial activity”.

The values are drawn from US20110263694A1, “Use of Xanthone Derivatives as a Medicament for Cancer” (MUSEUM NATIONAL D'HISTOIRE NATURELLE, priority 2008, published 2011).
